This note sets out measurements from US12129246B1, “Hydroquinazoline derivatives for the treatment of a disease or disorder” (Novartis AG, priority 2023, dated 2024).

Structures are written as SMILES. Where two headings read alike, the source gives them in different places.

In one assay the target is monkey NPR1 (Macaca fascicularis, UniProt A0A7N9DBT9). Put plainly: Cellular cGMP production assay, monkey NPR1 expressing CHO-K1 cells (CisBio HTRF). It is filed as cell-based. To be noted: for Monkey NPR1 Amax (% of ANP): maximum cGMP production as percentage of the maximum cGMP produced with ANP. The method, then: (§1) Cellular cGMP is a major second messenger that mediates cell activities and is synthesized by activated NPR1 triggered by binding of the natural ligand ANP. […] The assay was performed according to manufacturer's instructions with minor deviations. […] All compound stocks were diluted in PBS+0.1% BSA at 2-fold the final assay concentration. After addition of 10 μL/well of assay buffer (PBS+0.1% BSA+1 mM IBMX) and 10 μL/well of the compounds in different concentrations (12-point dose-response with 3-fold dilutions from a top concentration of 30 μM), the plate was incubated for 30 min at 37° C. to allow for cGMP production. In parallel, a standard curve using a calibrator (contained in the kit) was generated. The cells were lysed and a mix of cGMP-d2 and anti-cGMP-cryptate was added and incubated for 1 h at room temperature. The readout was performed using an Envision plate reader (PerkinElmer) with an excitation wavelength of 317 nm and an emission wavelength of 665 nm. cGMP concentration (Delta F [° %]) was calculated according to the following formulae: […]
For orientation: TR-FRET usually uses a lanthanide donor and a delayed reading to cut background.

In the next assay the target is T1, human NPR1 (Homo sapiens, UniProt P16066).
T1 construct: host or cells: CHO-K1
T1 sequence (P16066 33-1061): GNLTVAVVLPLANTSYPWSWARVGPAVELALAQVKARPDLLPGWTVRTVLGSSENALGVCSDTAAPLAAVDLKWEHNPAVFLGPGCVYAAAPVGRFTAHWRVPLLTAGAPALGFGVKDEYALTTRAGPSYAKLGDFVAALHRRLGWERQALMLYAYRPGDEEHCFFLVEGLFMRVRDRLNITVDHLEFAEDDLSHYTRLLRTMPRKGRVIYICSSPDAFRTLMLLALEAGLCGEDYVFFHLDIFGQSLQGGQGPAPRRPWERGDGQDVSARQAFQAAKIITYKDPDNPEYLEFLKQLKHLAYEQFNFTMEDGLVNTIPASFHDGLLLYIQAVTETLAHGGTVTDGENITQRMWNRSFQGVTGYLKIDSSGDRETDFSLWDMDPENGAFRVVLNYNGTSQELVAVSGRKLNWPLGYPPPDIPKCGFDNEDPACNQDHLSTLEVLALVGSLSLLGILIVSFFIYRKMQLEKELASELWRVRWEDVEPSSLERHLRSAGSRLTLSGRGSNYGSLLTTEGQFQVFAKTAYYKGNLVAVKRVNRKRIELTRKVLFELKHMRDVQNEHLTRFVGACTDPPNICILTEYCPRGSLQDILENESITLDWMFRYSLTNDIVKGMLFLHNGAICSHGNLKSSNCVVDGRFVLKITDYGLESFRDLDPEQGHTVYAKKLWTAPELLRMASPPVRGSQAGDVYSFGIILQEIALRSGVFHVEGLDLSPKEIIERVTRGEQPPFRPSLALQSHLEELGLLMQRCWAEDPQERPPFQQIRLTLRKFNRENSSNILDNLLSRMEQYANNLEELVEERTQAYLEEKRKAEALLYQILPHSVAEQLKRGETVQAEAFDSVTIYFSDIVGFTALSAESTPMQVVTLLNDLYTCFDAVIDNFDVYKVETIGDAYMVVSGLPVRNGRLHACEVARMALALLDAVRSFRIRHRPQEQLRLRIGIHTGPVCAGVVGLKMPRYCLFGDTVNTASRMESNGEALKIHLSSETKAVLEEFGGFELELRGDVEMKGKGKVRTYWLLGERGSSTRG
Kind of assay: Cellular cGMP production assay, human NPR1 expressing CHO-K1 cells (CisBio HTRF). It is filed as cell-based. To be noted: for AC50: cGMP production, 30 min at 37° C., 12-point dose-response from 30 μM; for Human NPR1 Amax (% of ANP): maximum cGMP production as percentage of the maximum cGMP produced with ANP. Here is the method:
as §1

Where [1] appears, read: cGMP production, monkey NPR1 CHO-K1 cells, 30 min at 37° C., 12-point dose-response from 30 μM, read-out: Monkey NPR1 AC50.

Sequence of monkey NPR1 (A0A7N9DBT9 entry or part of it): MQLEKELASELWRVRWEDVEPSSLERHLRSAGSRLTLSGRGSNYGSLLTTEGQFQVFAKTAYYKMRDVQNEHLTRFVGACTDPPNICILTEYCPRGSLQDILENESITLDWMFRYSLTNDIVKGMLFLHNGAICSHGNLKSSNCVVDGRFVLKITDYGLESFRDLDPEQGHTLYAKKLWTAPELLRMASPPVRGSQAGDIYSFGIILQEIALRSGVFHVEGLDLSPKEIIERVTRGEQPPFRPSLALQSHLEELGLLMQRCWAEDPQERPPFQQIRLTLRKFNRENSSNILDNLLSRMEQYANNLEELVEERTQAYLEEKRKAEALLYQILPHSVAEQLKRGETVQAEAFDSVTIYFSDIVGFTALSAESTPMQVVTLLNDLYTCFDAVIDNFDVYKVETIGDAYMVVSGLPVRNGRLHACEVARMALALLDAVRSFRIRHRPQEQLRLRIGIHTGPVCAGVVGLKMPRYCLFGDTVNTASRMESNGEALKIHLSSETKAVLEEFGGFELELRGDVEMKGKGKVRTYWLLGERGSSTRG

One may read the AC50 as the midpoint of the concentration-response curve, whichever way the signal moves. Regarding `CC[C@H]([C@H]1CC[C@H](C(=O)O)CC1)N(C)c1nc2c(c(N[C@@H](CN3CC4CCC3C4)c3ccccc3)n1)C[C@H](c1ccccc1)CC2` (stereo partly drawn) [Compound 136, (1R,4r)-4-((1R)-1-(((6R)-4-(((1R)-2-(2-azabicyclo[2.2.1]heptan-2-yl)-1-phenylethyl)amino)-6-phenyl-5,6,7,8-tetrahydroquinazolin-2-yl)(methyl)amino)propyl)cyclohexane-1-carboxylic acid], the AC50 turned out to be 516 nM on monkey NPR1 (setting [1]) and 812 nM at human NPR1. For the same compound, at monkey NPR1 (monkey NPR1 CHO-K1 cells), the “Monkey NPR1 Amax (% of ANP)” value is given as 96.754 % of ANP. Also, the “Human NPR1 Amax (% of ANP)” value at human NPR1 was 103.913 % of ANP.

Take `CC[C@H]([C@H]1CC[C@H](C(=O)O)CC1)N(C)c1nc2c(c(N[C@@H](CN3C4CCCC3CC4)c3cnn(C)c3)n1)C[C@H](c1ccc(F)cc1)CC2` [Compound 31, (1R,4r)-4-((1R)-1-(((6R)-4-(((1R)-2-(8-azabicyclo[3.2.1]octan-8-yl)-1-(1-methyl-1H-pyrazol-4-yl)ethyl)amino)-6-(4-fluorophenyl)-5,6,7,8-tetrahydroquinazolin-2-yl)(methyl)amino)propyl)cyclohexane-1-carboxylic acid]: the concentration at half-maximal activity (AC50) on monkey NPR1 amounted to 89 nM; at human NPR1, 144 nM. For the same compound, the “Monkey NPR1 Amax (% of ANP)” value on monkey NPR1 (monkey NPR1 CHO-K1 cells) is given as 100.914 % of ANP. Besides, the “Human NPR1 Amax (% of ANP)” value at human NPR1 is 92.978 % of ANP.

Consider `C[C@@H](Nc1nc2c(c(N[C@@H](CN3CCCC3)c3ccccc3)n1)C[C@H](c1ccccc1)CC2)c1ccc(C(=O)O)cc1` [Compound 159, 4-((R)-1-(((R)-6-phenyl-4-(((R)-1-phenyl-2-(pyrrolidin-1-yl)ethyl)amino)-5,6,7,8-tetrahydroquinazolin-2-yl)amino)ethyl)benzoic acid], for which, on monkey NPR1 (setting [1]), the AC50 was 503 nM. In addition, the “Monkey NPR1 Amax (% of ANP)” value at monkey NPR1 (monkey NPR1 CHO-K1 cells) is recorded as 98.468 % of ANP. Further, at human NPR1, the activity was half-maximal at 1580 nM (AC50) and the “Human NPR1 Amax (% of ANP)” value is 92.446 % of ANP.

On to `CC[C@@H](Nc1nc2c(c(N[C@@H](CN3C[C@H](C)C[C@H](C)C3)c3cnn(C)c3)n1)C[C@H](c1ccccc1)CC2)[C@H]1CC[C@H](C(=O)O)CC1` [Compound 61, (1R,4r)-4-((R)-1-(((R)-4-(((R)-2-((3S,5R)-3,5-dimethylpiperidin-1-yl)-1-(1-methyl-1H-pyrazol-4-yl)ethyl)amino)-6-phenyl-5,6,7,8-tetrahydroquinazolin-2-yl)amino)propyl)cyclohexane-1-carboxylic acid], for which the AC50 on monkey NPR1 (setting [1]) is 122 nM. In addition, at monkey NPR1 (monkey NPR1 CHO-K1 cells), the “Monkey NPR1 Amax (% of ANP)” value is 102.127 % of ANP. On human NPR1, the AC50 is 207 nM and the “Human NPR1 Amax (% of ANP)” value is listed as 104.236 % of ANP.

For `CC[C@@H](Nc1nc2c(c(N[C@H](CN3CCC[C@H](C)C3)c3cnn(C)c3)n1)C[C@](C)(c1cccc(F)c1)CC2)[C@H]1CC[C@H](C(=O)O)CC1` (stereo in doubt) [Compound 130, (1S,4r)-4-((S)-1-(((S)-6-(3-fluorophenyl)-6-methyl-4-(((R)-1-(1-methyl-1H-pyrazol-4-yl)-2-((R)-3-methylpiperidin-1-yl)ethyl)amino)-5,6,7,8-tetrahydroquinazolin-2-yl)amino)propyl)cyclohexane-1-carboxylic acid], at monkey NPR1 (setting [1]), the AC50 was 205 nM. On monkey NPR1 (monkey NPR1 CHO-K1 cells), the “Monkey NPR1 Amax (% of ANP)” value is on record as 114.798 % of ANP. For the same compound, at human NPR1, the AC50 came to 671 nM and the “Human NPR1 Amax (% of ANP)” value is on record as 88.663 % of ANP.

For `CC[C@@H](Nc1nc2c(c(N[C@@H](CN3CCCCC3)c3scnc3C)n1)C[C@H](c1ccccc1)CC2)[C@H]1CC[C@H](C(=O)O)CC1` [Compound 114, (1R,4r)-4-((R)-1-(((R)-4-(((S)-1-(4-methylthiazol-5-yl)-2-(piperidin-1-yl)ethyl)amino)-6-phenyl-5,6,7,8-tetrahydroquinazolin-2-yl)amino)propyl)cyclohexane-1-carboxylic acid], the concentration at half-maximal activity (AC50) at monkey NPR1 (setting [1]) came out at 296 nM. The “Monkey NPR1 Amax (% of ANP)” value on monkey NPR1 (monkey NPR1 CHO-K1 cells) is 113.348 % of ANP. At human NPR1, half-maximal activity (AC50) was put at 449 nM and the “Human NPR1 Amax (% of ANP)” value is on record as 108.428 % of ANP.

Regarding `CC[C@@H](Nc1nc2c(c(N[C@@H](CNC3CCOCC3)c3ccccc3)n1)C[C@H](c1ccccc1)CC2)[C@H]1CC[C@H](C(=O)O)CC1` [Compound 166, (1R,4r)-4-((R)-1-(((R)-6-phenyl-4-(((R)-1-phenyl-2-((tetrahydro-2H-pyran-4-yl)amino)ethyl)amino)-5,6,7,8-tetrahydroquinazolin-2-yl)amino)propyl)cyclohexane-1-carboxylic acid], the AC50 at monkey NPR1 (setting [1]) worked out at 1980 nM; at human NPR1 it was 2000 nM. Also, the “Monkey NPR1 Amax (% of ANP)” value on monkey NPR1 (monkey NPR1 CHO-K1 cells) is recorded as 96.913 % of ANP. Moreover, the “Human NPR1 Amax (% of ANP)” value on human NPR1 was 101.913 % of ANP.

For `CC[C@@H](Nc1nc2c(c(N[C@@H](CN3C4CC5CC(C4)CC3C5)c3cnn(C)c3)n1)C[C@H](c1ccccc1)CC2)[C@H]1CC[C@H](C(=O)O)CC1` [Compound 71, (1R,4r)-4-((R)-1-(((R)-4-(((R)-2-((5R,7R)-2-azaadamantan-2-yl)-1-(1-methyl-1H-pyrazol-4-yl)ethyl)amino)-6-phenyl-5,6,7,8-tetrahydroquinazolin-2-yl)amino)propyl)cyclohexane-1-carboxylic acid], the concentration at half-maximal activity (AC50) on monkey NPR1 (setting [1]) worked out at 78 nM. Besides, on monkey NPR1 (monkey NPR1 CHO-K1 cells), the “Monkey NPR1 Amax (% of ANP)” value is reported as 121.791 % of ANP. Further, at human NPR1, the activity was half-maximal at 237 nM (AC50) and the “Human NPR1 Amax (% of ANP)” value is 91.827 % of ANP.

With `CC[C@H]([C@H]1CC[C@H](C(=O)O)CC1)N(C)c1nc2c(c(N[C@@H](CN3CCCC[C@@H]3CO)c3cnn(C)c3)n1)C[C@H](c1ccccc1)CC2` [Compound 149, (1R,4r)-4-((R)-1-(((R)-4-(((R)-2-((R)-2-(hydroxymethyl)piperidin-1-yl)-1-(1-methyl-1H-pyrazol-4-yl)ethyl)amino)-6-phenyl-5,6,7,8-tetrahydroquinazolin-2-yl)(methyl)amino)propyl)cyclohexane-1-carboxylic acid], the AC50 on monkey NPR1 (setting [1]) is 1020 nM. The “Monkey NPR1 Amax (% of ANP)” value at monkey NPR1 (monkey NPR1 CHO-K1 cells) is reported as 164.167 % of ANP. Moreover, at human NPR1, the AC50 worked out at 1140 nM and the “Human NPR1 Amax (% of ANP)” value is recorded as 130.209 % of ANP.

With `CC[C@H]([C@H]1CC[C@H](C(=O)O)CC1)N(C)c1nc2c(c(N[C@@H](CN3CCC[C@@H](C)C3)c3cnn(C)c3)n1)C[C@H](c1ccccc1)CC2` [Compound 125, (1R,4r)-4-((R)-1-(methyl((R)-4-(((R)-1-(1-methyl-1H-pyrazol-4-yl)-2-((R)-3-methylpiperidin-1-yl)ethyl)amino)-6-phenyl-5,6,7,8-tetrahydroquinazolin-2-yl)amino)propyl)cyclohexane-1-carboxylic acid], on monkey NPR1 (setting [1]), the AC50 was found to be 410 nM. In addition, the “Monkey NPR1 Amax (% of ANP)” value at monkey NPR1 (monkey NPR1 CHO-K1 cells) was 114.072 % of ANP. Besides, on human NPR1, the AC50 turned out to be 619 nM and the “Human NPR1 Amax (% of ANP)” value is on record as 106.130 % of ANP.

For the compound `CC[C@H]([C@H]1CC[C@H](C(=O)O)CC1)N(C)c1nc2c(c(N[C@H](c3cnn(C)c3)C(C)(C)N3CCCCC3)n1)C[C@H](c1ccccc1)CC2` [Compound 173, (1R,4r)-4-((R)-1-(methyl((R)-4-(((R)-2-methyl-1-(1-methyl-1H-pyrazol-4-yl)-2-(piperidin-1-yl)propyl)amino)-6-phenyl-5,6,7,8-tetrahydroquinazolin-2-yl)amino)propyl)cyclohexane-1-carboxylic acid], the concentration at half-maximal activity (AC50) at monkey NPR1 (setting [1]) worked out at 2580 nM. The “Monkey NPR1 Amax (% of ANP)” value at monkey NPR1 (monkey NPR1 CHO-K1 cells) is 102.204 % of ANP. Further, on human NPR1, the AC50 is 4200 nM and the “Human NPR1 Amax (% of ANP)” value is 102.335 % of ANP.
